Experimental data from article PMC7822874, “Chemoprotective antimalarials identified through quantitative high-throughput screening of Plasmodium blood and liver stage parasites” (Scientific Reports, 2021).
Values joined by “and” are separate entries in the source; they are usually repeats but may differ in a detail not shown here. Equal values may be shown once. Read-outs that look alike come from different tables or passages of the source.

Columns and labels:
in vitro [1] = details: human
HepG2 = details: human, hepg2 cells, 48 h
in vitro [2] = details: human, hepg2 cells
[3] = tested on: P. berghei-ANKA-GFP-LucCON liver stage parasites in HepG2-A16-CD81EGFP cells; assay: P. berghei liver stage Pb-Luc assay, Method 1 (UCSD, 1536-well); assay type: cell-based, Plasmodium berghei; details: Plasmodium berghei, 48 h, average of 2 wells, 1536-well plate; for activity at 1 µM: nominal 1 uM (10 mM stock), […] for 15 mM, 1.2 uM for 12 mM, 2 uM for 20 mM stock; for activity at 3 µM: nominal 3 uM (10 mM stock), 4.5 uM for 15 mM, 3.6 uM for 12 mM, 6 uM for 20 mM stock
[4] = tested on: Plasmodium falciparum Dd2 asexual blood stage parasites; assay: microbe, parasite or virus in culture; set-up: species or system Plasmodium falciparum Dd2 in human erythrocytes; single determination (one 11-point concentration-response curve); details: Plasmodium falciparum, DD2, Erythrocyte, 72 h; read-out: AC50
[5] = HepG2-A16-CD81EGFP cells, uninfected
[6] = repeat 1, read-out: Pb-Luc signal, 1 uM, repeat 1
[7] = repeat 2, read-out: Pb-Luc signal, 1 uM, repeat 2
[8] = repeat 3, read-out: Pb-Luc signal, 1 uM, repeat 3
[9] = repeat 1, read-out: Pb-Luc signal, 3 uM, repeat 1
[10] = repeat 2, read-out: Pb-Luc signal, 3 uM, repeat 2
[11] = repeat 3, read-out: Pb-Luc signal, 3 uM, repeat 3
[12] = nominal 1 uM (10 mM stock), […] for 15 mM, 1.2 uM for 12 mM, 2 uM for 20 mM stock, average of 2 wells, repeat 2
[13] = nominal 3 uM (10 mM stock), 4.5 uM for 15 mM, 3.6 uM for 12 mM, 6 uM for 20 mM stock, average of 2 wells, repeat 2

| SMILES | HepG2 viability, % of control (HepG2-A16-CD81EGFP cells) | viability at 48 h, 1 µM (in vitro [1]; [5]) [%] | viability at 48 h, 3 µM (in vitro [1]; [5]) [%] | Log AC50 (M) (HepG2) | CC50 at 48 h (in vitro [2]) [µM] | activity at 1 µM [3, 6] [%] | activity at 1 µM [3, 7] [%] | activity at 1 µM [3, 8] [%] | activity at 3 µM [3, 9] [%] | activity at 3 µM [3, 10] [%] | activity at 3 µM [3, 11] [%] | AC50 [4] [µM] | HepG2 viability signal, 1 uM, repeat 2 (HepG2-A16-CD81EGFP cells; [12]) [%] | HepG2 viability signal, 3 uM, repeat 2 (HepG2-A16-CD81EGFP cells; [13]) [%] | HepG2 viability signal, 1 uM, repeat 2 (HepG2-A16-CD81EGFP cells; human, 48 h, 1 µM) [%] | HepG2 viability signal, 3 uM, repeat 2 (HepG2-A16-CD81EGFP cells; human, 48 h, 3 µM) [%] | viability at 48 h, 1 µM (in vitro [1]) [%] | viability at 48 h, 3 µM (in vitro [1]) [%] |
| --- | --- | --- | --- | --- | --- | --- | --- | --- | --- | --- | --- | --- | --- | --- | --- | --- | --- | --- |
| Br.CCOC(=O)c1c(CSC(=N)N)n(-c2ccc(Br)cc2)c2cc(Br)c(OC(C)=O)cc12 [MLS000595146-01] | 100% and 96% | 105 | 104 | -4.3143 | 48.5 |  |  |  |  |  |  |  |  |  |  |  |  |  |
| CCCCCn1c(=N)n(CC(O)COc2cccc(C)c2)c2ccccc21 (centres unmarked) [NCGC00101833-01] |  | 98.8 | 94.8 | -4.3643 | 43.2 | 93.7 | 90.1 | 79.6 | 67.5 | 71 | 96.1 | 2.11 | 100.99 | 100.64 |  |  |  |  |
| CN1CCN(c2ccc3ncc(Nc4ccccc4-c4ccccc4)n3n2)CC1 [NCGC00412547-01] |  | 96 | 97.1 | -4.3528 | 44.4 | 101 | 104 | 100 | 50.6 | 88.8 | 92.9 | 0.863 | 97.22 | 96.99 |  |  |  |  |
| O=C(Nc1ccccc1)OC[C@H]1C[C@@H]2CCN1C[C@@H]2c1cc(C2CCCC2)nc(-c2ccncc2)n1 [NCGC00421344-01] |  |  |  | -4.4643 | 34.3 | 68.5 | 91.8 | 72.8 | 27.1 | 71.6 | 77.7 | 1.68 |  |  | 103.60 | 105.28 | 101 | 105 |
| CN(C)CCCNc1cc(N2CCN(C3CCCCC3)CC2)c2noc3c2c1C(=O)c1ccccc1-3 [NCGC00111069-01] |  | 96.3 | 93.8 | -4.4143 | 38.5 | 66 | 110 | 109 | 57.2 | 71.6 | 75.6 | 1.33 | 102.79 | 99.71 |  |  |  |  |
| N=c1n(CCN2CCCCC2)c2ccccc2n1CC(O)COc1ccc(Cl)cc1Cl (centres unmarked) [NCGC00100256-01] |  | 103 | 102 | -4.5143 | 30.6 | 94.7 | 93.8 | 119 | 65.4 | 71 | 72.8 | 4.22 | 103.32 | 101.25 |  |  |  |  |
| COc1ccc(CN2CCCn3nc(C)c(-c4ccccc4Oc4ccccc4)c32)cc1O [NCGC00420291-01] |  | 101 | 105 | -4.3643 | 43.2 | 77.1 | 79.5 | 133 | 83.6 | 59.5 | 87.2 | 9.44 | 99.76 | 103.00 |  |  |  |  |
